The target in series [1] is T1, human TRPA1 (Homo sapiens, UniProt O75762, K186N/R3C/R58T).
T1 construct: expressed in transfected cells; pcDNA3.1(+) vector)
Nature of the series: Measurement of TRPA1 activation activity (intracellular calcium, FLIPR, HEK293 cells stably expressing human TRPA1). To be noted: change of intracellular calcium concentration. The series is classed as cell-based. The essentials:
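HEK293 cells stably expressing cloned human TRPA1 (G418-selected) were loaded with Fluo4-AM for 1 h in HBSS/HEPES pH 7.4 buffer containing probenecid. Intracellular calcium change after compound addition was recorded by FLIPR. EC50 values were calculated from these responses.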

Structures are written as SMILES.

T1 sequence (O75762 whole entry R3C/R58T/K186N): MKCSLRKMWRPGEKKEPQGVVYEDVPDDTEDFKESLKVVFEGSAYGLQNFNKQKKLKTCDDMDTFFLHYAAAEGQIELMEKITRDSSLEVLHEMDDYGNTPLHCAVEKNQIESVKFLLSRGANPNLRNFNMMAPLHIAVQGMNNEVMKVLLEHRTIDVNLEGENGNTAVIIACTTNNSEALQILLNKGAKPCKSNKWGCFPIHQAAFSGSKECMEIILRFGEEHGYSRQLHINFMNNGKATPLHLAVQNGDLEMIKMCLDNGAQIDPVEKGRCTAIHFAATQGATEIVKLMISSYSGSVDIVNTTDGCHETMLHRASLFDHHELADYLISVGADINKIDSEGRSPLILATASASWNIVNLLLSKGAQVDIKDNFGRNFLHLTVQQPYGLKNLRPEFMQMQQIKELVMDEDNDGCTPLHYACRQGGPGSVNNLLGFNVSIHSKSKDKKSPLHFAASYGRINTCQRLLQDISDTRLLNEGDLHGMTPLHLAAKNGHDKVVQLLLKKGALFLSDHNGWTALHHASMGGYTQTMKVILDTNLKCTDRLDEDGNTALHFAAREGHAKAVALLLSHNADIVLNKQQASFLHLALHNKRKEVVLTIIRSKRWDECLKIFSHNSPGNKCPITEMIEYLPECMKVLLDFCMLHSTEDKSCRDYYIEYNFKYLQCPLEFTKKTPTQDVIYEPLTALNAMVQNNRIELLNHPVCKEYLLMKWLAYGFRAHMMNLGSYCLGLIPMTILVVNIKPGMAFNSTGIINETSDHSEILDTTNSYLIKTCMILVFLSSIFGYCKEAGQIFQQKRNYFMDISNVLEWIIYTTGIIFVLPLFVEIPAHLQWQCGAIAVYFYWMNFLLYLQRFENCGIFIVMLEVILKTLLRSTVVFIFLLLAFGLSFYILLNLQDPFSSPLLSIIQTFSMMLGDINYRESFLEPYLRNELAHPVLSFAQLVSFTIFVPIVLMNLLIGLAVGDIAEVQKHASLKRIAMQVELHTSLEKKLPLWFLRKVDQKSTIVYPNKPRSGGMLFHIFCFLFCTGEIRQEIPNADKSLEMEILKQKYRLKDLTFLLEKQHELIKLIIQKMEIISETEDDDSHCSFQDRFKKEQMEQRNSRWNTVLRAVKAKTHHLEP

The compound `O=C(O)/C=C1/C(=O)N(CC2CCCC2)c2c(F)cccc21` [Example 28, (2E)-[1-(cyclopentylmethyl)-7-fluoro-2-oxo-1,2-dihydro-3H-indol-3-ylidene]acetic acid] gave a melting point of 151 to 153 °C. In addition, the EC50 in series [1] came to 510 nM.
